What was measured:
[1] = test system: cellular retinoic acid binding protein (CRABP); conditions: cited from earlier work
[2] = test system: primary human foreskin fibroblasts; assay: In vitro single-concentration screen of predicted compounds (brightfield, qRT-PCR); assay type: cell-based; conditions: single concentration, 24 hours, vs vehicle
Protocol: In order to initially test the identified drugs, we applied each drug or DMSO vehicle control at a single concentration to primary human foreskin fibroblasts in vitro for 24 hours, before harvesting and measuring relative expression of selected myofibroblast marker genes by qRT-PCR. […] None of the drugs tested appeared to affect expression of TGFB1 (the gene encoding transforming growth factor-beta 1) at the examined concentrations.
MATERIALS AND METHODS Materials Emetine dihydrochloride hydrate, homoharringtonine, Ch55 and panobinostat were acquired from Fisher Scientific (Waltham, MA). AZD-7762 was acquired from Selleck Chemicals (Houston, TX). For in vitro work, emetine dihydrochloride hydrate was dissolved in sterile H2O at 50 mM. Homoharringtonine was dissolved in DMSO at 10 mg/mL. Panobinostat was dissolved in DMSO at 425 μM. […] AZD-7762 was dissolved in DMSO at 500 μM. Recombinant human TGF-β1 (Sigma-Aldrich) was dissolved in sterile H2O at 50 µg/mL. All-trans-retinoic acid (Thermo Scientific) was dissolved in DMSO at 10 mM.

[3] = test system: primary human foreskin fibroblasts; assay: RNA-seq expression profiling of Ch55 effects; assay type: cell-based; conditions: 1,000 nM Ch55, 24 hours
Description: We then used goseq (Young et al., 2010) to query the KEGG database with the […] signature and the TGF-β-antagonizing signature. Extraction of KEGG annotations and associated pathways enriched in the […] signature (FIG. 3D) tended to refer to either general categories (e.g. “proteasome,” “cell cycle,” “phagosome”) or categories relevant to other specific cell types (e.g. “Epithelial cell signaling in H. pylori infection,” “Collecting duct acid secretion,” “Axon guidance”). […] We next computed normalized gene expression values for the DEGs extracted from the TGF-β-antagonizing signature and overlaid Ch55-induced relative expression effects on potentially fibrosis-relevant pathways of interest using Pathview Web (Luo et al., 2017).
Purified RNA harvested from primary cultured human foreskin fibroblasts pooled from three donors underwent TruSeq stranded mRNA-seq library preparation at the Northwestern University NUSeq core facility, followed by paired-end sequencing on an Illumina HiSeq 4000. Raw FASTQ files were imported into Galaxy (Jalili et al., 2020). Reads were trimmed using Trimmomatic (Bolger et al., 2014) utilizing default parameters, prior to aligning to the human genome (hg38 construction) using HISAT2 (Kim et al., 2019). Reads were assigned to genomic features using featureCounts (Liao et al., 2014), and differential expression among groups was determined, and principal component analysis constructed, using DESeq2 (Love et al., 2014) with multiple comparison adjustment performed by the Benjamini-Hochberg correction (Benjamini and Hochberg, 1995). Differentially-expressed genes were defined as false discovery rate-adjusted (FDR) P<0.05. Pathway analysis on KEGG databases (Kanehisa and Goto, 2000) were performed using goseq (Young et al., 2010) and Pathview Web (Luo et al., 2017). Z-scores were calculated from normalized count values and used to construct heatmaps. FPKM values were estimated using Stringtie (Pertea et al., 2015). Raw RNA-sequence data are available through the National Center for Biotechnology Information Sequence Read Archive accession number PRJNA921850, the contents of which is incorporated by reference in its entirety.

[4] = test system: primary rabbit dermal fibroblasts; assay: Ch55 treatment of rabbit dermal fibroblasts (morphology, ACTA2 qRT-PCR); assay type: cell-based; conditions: 1,000 nM, 24 hours
Protocol: Cell culture Primary human neonatal foreskin fibroblasts were obtained from the Skin Biology and Diseases Resource-based Center at Northwestern University. Primary rabbit dermal fibroblasts were isolated from female New Zealand White rabbits via harvesting full-thickness skin biopsies from rabbit ears, digesting overnight in a solution of 5 mg/mL dispase, and subsequently mechanically separating dermis from epidermis. After discarding epidermal tissue, dermal tissue was minced with a razor blade, and fibroblasts were liberated through collagenase-mediated digestion for growth in culture. […] Human fibroblasts and rabbit fibroblasts were cultured on tissue culture plastic (or, for immunofluorescence experiments, on glass coverslips) in DMEM+10% FBS and were serum starved in DMEM+0.1% FBS for 24 hours prior to drug treatments. When indicated, recombinant human TGF-β 1 was included in culture medium at a concentration of 10 ng/mL. Cultures were maintained in a humidified cell culture incubator at 37° C., 5% CO2, and ambient O2. For treatment with drugs and associated vehicle controls, the fraction of DMSO in the media was always maintained at <0.1% (v/v) in order to avoid confounding effects. […]

For `CC(C)(C)c1cc(C(=O)/C=C/c2ccc(C(=O)O)cc2)cc(C(C)(C)C)c1` [Ch55], the “affinity for CRABP” value [1] is given as “low affinity”, the “ACTA2 expression (qRT-PCR)” value [2] is given as “clear and consistent downregulation” and the “CCN2 expression (qRT-PCR)” value [2] is given as “clear and consistent downregulation”. The “MMP1 expression (qRT-PCR)” value [2] was “without downregulating”, the “SERPINE1 expression (qRT-PCR)” value [2] was “clear and consistent downregulation” and the “genes known to be targets or regulators of retinoic acid signaling (RNA-seq)” value [3] was “broad upregulation”. The “myofibroblast marker genes (RNA-seq)” value [3] was “significantly downregulated”, the “LRRC15+/Lrrc15+ signature-enriched genes significantly downregulated (number of genes)” value ([3]; RNA-seq) was 67/117 and the “LRRC15+/Lrrc15+ signature-enriched genes significantly downregulated (share of genes)” value ([3]; RNA-seq) was about 57%. For the same compound, the “effects on morphology and ACTA2 expression” value [4] was “comparable effects”.
